These are literature values, as cited in publication PMC6429214, “Design, Synthesis and Biological Evaluation of Isoxazole-Based CK1 Inhibitors Modified with Chiral Pyrrolidine Scaffolds” (Molecules, 2019).

By IC50 is commonly meant the concentration that gives 50% inhibition.

Common to all, as to conditions: cited from earlier work
One series has as its system Trk. Also on record: method as in PMID 20336234.
A further series deals with CK1δ. Also on record: method as in PMID 19591487.
A further series deals with p38α. Further details: method as in PMID 18763757.

As to `C[C@]12O[C@H](C[C@]1(O)CO)n1c3ccccc3c3c4c(c5c6ccccc6n2c5c31)CNC4=O` [compound 7], the 50% inhibitory concentration (IC50) in the series on Trk was 25 nM.

Regarding `COc1ccc(/C=C/C(=O)Nc2cc(-c3c(-c4ccc(F)cc4)noc3C(C)C)ccn2)c(OC)c1` [compound 8], the 50% inhibitory concentration (IC50) with CK1δ is 33 nM.

On to `CC(C)C(C)Nc1cc(-c2[nH]c(SC[C@@H](O)CO)nc2-c2ccc(F)cc2)ccn1` (stereo partly drawn) [compound 5], for which, in the series on p38α, the IC50 was 15 nM.
